In ChEMBL document CHEMBL1909046, “DrugMatrix in vitro pharmacology data”:

What was measured:
[1] = target: T1, Alpha-2C adrenergic receptor (Homo sapiens, UniProt P18825); test: DRUGMATRIX: Adrenergic Alpha-2C radioligand binding (ligand: [3H] MK-912); assay type: cell membranes, Sf9, Membrane; conditions: sf9
T1 sequence (P18825 whole entry): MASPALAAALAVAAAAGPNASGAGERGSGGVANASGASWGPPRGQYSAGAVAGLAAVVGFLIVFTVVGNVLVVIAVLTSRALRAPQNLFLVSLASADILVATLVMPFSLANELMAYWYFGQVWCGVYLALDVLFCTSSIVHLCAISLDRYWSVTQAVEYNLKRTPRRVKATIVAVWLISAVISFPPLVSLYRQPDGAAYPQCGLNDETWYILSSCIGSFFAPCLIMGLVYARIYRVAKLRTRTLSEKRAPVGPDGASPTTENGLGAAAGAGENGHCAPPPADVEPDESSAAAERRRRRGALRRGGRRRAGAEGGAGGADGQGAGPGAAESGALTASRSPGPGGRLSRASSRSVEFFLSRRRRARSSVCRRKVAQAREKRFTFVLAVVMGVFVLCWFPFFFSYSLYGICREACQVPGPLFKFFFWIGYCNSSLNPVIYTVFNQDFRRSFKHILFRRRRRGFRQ

[2] = target: T2, Endothelin-1 receptor (Homo sapiens, UniProt P25101); assay type: cell membranes, Membrane; conditions: cho-k1; note: in other assays of this panel Not Active means under 50% inhibition at 10 µM
T2 sequence (P25101 whole entry): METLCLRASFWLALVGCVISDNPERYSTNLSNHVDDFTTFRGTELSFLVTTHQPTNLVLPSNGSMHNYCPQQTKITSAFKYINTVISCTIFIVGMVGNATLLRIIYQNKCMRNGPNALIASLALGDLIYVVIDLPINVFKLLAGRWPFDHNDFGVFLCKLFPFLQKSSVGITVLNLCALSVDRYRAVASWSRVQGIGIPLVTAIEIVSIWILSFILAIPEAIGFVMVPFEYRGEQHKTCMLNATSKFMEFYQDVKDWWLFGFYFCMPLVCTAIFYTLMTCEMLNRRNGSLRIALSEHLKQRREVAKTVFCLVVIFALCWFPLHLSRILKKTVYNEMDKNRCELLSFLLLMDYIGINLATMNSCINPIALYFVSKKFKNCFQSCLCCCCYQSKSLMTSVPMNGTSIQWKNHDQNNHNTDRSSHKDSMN

[3] = DRUGMATRIX: Glutamate, AMPA radioligand binding (ligand: [3H] AMPA); assay type: cell membranes, Rattus norvegicus, Wistar, Cerebral cortex, Membrane; conditions: Not Active = under 50% inhibition at 10 µM
[4] = target: T3, 3-hydroxy-3-methylglutaryl-coenzyme A reductase (Homo sapiens, UniProt P04035); parameters: species or system Escherichia coli;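 note: enzyme inhibition assay of HMG-CoA reductase using radiolabeled [14C]HMG-CoA as substrate; in other assays of this panel Not Active means under 50% inhibition at 10 µM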
T3 sequence (P04035 whole entry): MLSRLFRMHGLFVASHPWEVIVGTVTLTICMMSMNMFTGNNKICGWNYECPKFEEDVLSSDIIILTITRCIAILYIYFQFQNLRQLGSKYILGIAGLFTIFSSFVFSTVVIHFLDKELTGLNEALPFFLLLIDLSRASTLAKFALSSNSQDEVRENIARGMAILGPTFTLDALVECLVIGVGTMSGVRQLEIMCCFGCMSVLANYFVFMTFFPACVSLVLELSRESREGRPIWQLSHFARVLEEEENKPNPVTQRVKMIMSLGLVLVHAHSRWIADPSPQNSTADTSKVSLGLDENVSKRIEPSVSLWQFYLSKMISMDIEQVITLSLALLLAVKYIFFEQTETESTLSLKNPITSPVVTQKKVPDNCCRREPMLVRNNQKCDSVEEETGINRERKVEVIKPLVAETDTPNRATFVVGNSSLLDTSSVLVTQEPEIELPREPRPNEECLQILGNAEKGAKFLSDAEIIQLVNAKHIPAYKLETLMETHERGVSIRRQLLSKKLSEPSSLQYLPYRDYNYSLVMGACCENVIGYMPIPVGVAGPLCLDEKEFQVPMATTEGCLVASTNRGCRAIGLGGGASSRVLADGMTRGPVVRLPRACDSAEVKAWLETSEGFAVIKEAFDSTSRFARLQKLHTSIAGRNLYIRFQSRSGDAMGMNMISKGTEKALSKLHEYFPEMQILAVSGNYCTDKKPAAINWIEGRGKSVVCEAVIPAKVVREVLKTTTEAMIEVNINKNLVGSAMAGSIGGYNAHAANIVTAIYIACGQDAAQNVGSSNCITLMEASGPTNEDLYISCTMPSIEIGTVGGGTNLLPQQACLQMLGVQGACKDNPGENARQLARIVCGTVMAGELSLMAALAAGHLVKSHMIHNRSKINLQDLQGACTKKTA

[5] = target: Melanocortin receptor 4 (Homo sapiens, UniProt P32245); assay type: cell membranes, Membrane; conditions: hek293; note: in other assays of this panel Not Active means under 50% inhibition at 10 µM
Chain of Melanocortin receptor 4 (P32245 whole entry): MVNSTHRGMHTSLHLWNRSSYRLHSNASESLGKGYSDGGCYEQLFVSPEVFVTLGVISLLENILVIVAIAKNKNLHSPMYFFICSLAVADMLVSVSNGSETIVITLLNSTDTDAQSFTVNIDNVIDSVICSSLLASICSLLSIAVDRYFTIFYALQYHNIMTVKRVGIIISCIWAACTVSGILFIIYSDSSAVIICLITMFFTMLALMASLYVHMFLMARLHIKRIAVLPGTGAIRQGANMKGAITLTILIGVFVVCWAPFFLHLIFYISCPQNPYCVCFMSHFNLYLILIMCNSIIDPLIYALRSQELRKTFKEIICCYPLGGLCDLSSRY

[6] = target: cGMP-specific 3',5'-cyclic phosphodiesterase (Homo sapiens, UniProt O76074); test: DRUGMATRIX: Phosphodiesterase PDE5 enzyme inhibition (substrate: [3H]cGMP + cGMP); assay type: tissue-based; conditions: platelet; Not Active = under 50% inhibition at 10 µM
[7] = target: Mitogen-activated protein kinase 3 (Homo sapiens, UniProt P27361); test: DRUGMATRIX: Protein Serine/Threonine Kinase, ERK1 enzyme inhibition (substrate: Myelin Basic Protein); parameters: species or system Escherichia coli; conditions: Not Active = under 50% inhibition at 10 µM
Chain of Mitogen-activated protein kinase 3 (P27361 whole entry): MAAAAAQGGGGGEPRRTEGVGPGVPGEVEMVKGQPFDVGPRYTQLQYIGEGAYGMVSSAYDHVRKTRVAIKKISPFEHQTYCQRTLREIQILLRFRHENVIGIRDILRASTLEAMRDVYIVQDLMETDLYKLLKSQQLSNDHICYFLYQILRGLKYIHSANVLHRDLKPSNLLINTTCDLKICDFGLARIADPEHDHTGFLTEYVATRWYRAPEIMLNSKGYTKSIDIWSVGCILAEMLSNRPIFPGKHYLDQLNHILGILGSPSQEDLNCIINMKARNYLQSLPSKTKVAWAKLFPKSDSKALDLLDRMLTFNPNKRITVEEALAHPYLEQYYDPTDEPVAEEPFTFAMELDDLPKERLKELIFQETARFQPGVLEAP

[8] = target: 5-hydroxytryptamine receptor 1B (Rattus norvegicus, UniProt P28564); assay type: cell membranes, Wistar, Cerebral cortex, Membrane; note: in other assays of this panel Not Active means under 50% inhibition at 10 µM
Chain of 5-hydroxytryptamine receptor 1B (P28564 whole entry): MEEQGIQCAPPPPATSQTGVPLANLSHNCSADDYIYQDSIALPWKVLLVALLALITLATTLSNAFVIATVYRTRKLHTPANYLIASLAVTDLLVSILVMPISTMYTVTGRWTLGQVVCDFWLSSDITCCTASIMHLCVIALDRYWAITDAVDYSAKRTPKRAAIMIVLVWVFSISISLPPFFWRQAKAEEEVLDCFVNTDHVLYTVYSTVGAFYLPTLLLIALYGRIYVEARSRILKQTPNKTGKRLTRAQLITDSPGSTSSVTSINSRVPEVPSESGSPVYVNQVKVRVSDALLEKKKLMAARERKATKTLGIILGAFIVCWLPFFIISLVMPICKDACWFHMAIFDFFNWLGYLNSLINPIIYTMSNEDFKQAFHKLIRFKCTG

CCOC(=O)[C@H](CCc1ccccc1)N[C@H]1CCc2ccccc2N(CC(=O)O)C1=O [BENAZEPRIL]
Not Active: IC50 [1] | IC50 [2] | IC50 [3] | Ki [3] | IC50 [4] | IC50 [5] | IC50 [6] | IC50 [7] | IC50 [8]

Nc1c(CC(=O)O)cccc1C(=O)c1ccc(Br)cc1 [BROMFENAC]
Not Active: IC50 [1] | IC50 [2] | IC50 [3] | Ki [3] | IC50 [4] | IC50 [5] | IC50 [6] | IC50 [7] | IC50 [8]

CCCCN1CCCCC1C(=O)Nc1c(C)cccc1C.Cl (stereo not given) [BUPIVACAINE HYDROCHLORIDE]
Not Active: IC50 [1] | IC50 [2] | IC50 [3] | Ki [3] | IC50 [4] | IC50 [5] | IC50 [6] | IC50 [7] | IC50 [8]

O=C1CC2(CCCC2)CC(=O)N1CCCCN1CCN(c2ncccn2)CC1 [BUSPIRONE]
Not Active: IC50 [1] | IC50 [2] | IC50 [3] | Ki [3] | IC50 [4] | IC50 [5] | IC50 [6] | IC50 [7] | IC50 [8]

C[C@@]12C(=O)OC(=O)[C@]1(C)[C@H]1CC[C@@H]2O1 [CANTHARIDIN]
Not Active: IC50 [1] | IC50 [2] | IC50 [3] | Ki [3] | IC50 [4] | IC50 [5] | IC50 [6] | IC50 [7] | IC50 [8]

O=NN(CCCl)C(=O)NCCCl [CARMUSTINE]
Not Active: IC50 [1] | IC50 [2] | IC50 [3] | Ki [3] | IC50 [4] | IC50 [5] | IC50 [6] | IC50 [7] | IC50 [8]

CC1=C(C(=O)O)N2C(=O)[C@@H](NC(=O)[C@H](N)c3ccccc3)[C@H]2SC1 [CEPHALEXIN ANHYDROUS]
Not Active: IC50 [1] | IC50 [2] | IC50 [3] | Ki [3] | IC50 [4] | IC50 [5] | IC50 [6] | IC50 [7] | IC50 [8]

O=C(N[C@H](CO)[C@H](O)c1ccc([N+](=O)[O-])cc1)C(Cl)Cl [CHLORAMPHENICOL]
Not Active: IC50 [1] | IC50 [2] | IC50 [3] | Ki [3] | IC50 [4] | IC50 [5] | IC50 [6] | IC50 [7] | IC50 [8]

ClC(Cl)Cl [CHLOROFORM]
Not Active: IC50 [1] | IC50 [2] | IC50 [3] | Ki [3] | IC50 [4] | IC50 [5] | IC50 [6] | IC50 [7] | IC50 [8]

C=C1CC[C@H](O)C/C1=C/C=C1\CCC[C@]2(C)[C@@H]([C@H](C)CCCC(C)C)CC[C@@H]12 [CHOLECALCIFEROL]
Not Active: IC50 [1] | IC50 [2] | IC50 [3] | Ki [3] | IC50 [4] | IC50 [5] | IC50 [6] | IC50 [7] | IC50 [8]

C[N+](C)(C)CCO.[Cl-] [CHOLINE CHLORIDE]
Not Active: IC50 [1] | IC50 [2] | IC50 [3] | Ki [3] | IC50 [4] | IC50 [5] | IC50 [6] | IC50 [7] | IC50 [8]

CCOC(=O)C(C)(C)Oc1ccc(Cl)cc1 [CLOFIBRATE]
Not Active: IC50 [1] | IC50 [2] | IC50 [3] | Ki [3] | IC50 [4] | IC50 [5] | IC50 [6] | IC50 [7] | IC50 [8]

CC(=O)OCC(=O)[C@@]1(O)CC[C@H]2[C@@H]3CCC4=CC(=O)CC[C@]4(C)[C@H]3C(=O)C[C@@]21C [CORTISONE ACETATE]
Not Active: IC50 [1] | IC50 [2] | IC50 [3] | Ki [3] | IC50 [4] | IC50 [5] | IC50 [6] | IC50 [7] | IC50 [8]

O=c1ccc2ccccc2o1 [COUMARIN]
Not Active: IC50 [1] | IC50 [2] | IC50 [3] | Ki [3] | IC50 [4] | IC50 [5] | IC50 [6] | IC50 [7] | IC50 [8]

C[C@@H]1C[C@@H]([C@H](O)CC2CC(=O)NC(=O)C2)C(=O)[C@@H](C)C1 [CYCLOHEXIMIDE]
Not Active: IC50 [1] | IC50 [2] | IC50 [3] | Ki [3] | IC50 [4] | IC50 [5] | IC50 [6] | IC50 [7] | IC50 [8]
